Tested on: yellow nutsedge
Experiment: Field trial, post-emergence control of yellow nutsedge (Blacksburg, Va.)
Format: in vivo, Cyperus esculentus
Conditions: for Yellow nut sedge (Percentage weed cover), 05/07 / Yellow nut sedge (Percentage weed cover), 13/06 / Yellow nut sedge (Percentage weed cover), 20/6 / Yellow nut sedge (Percentage Control), 05/07 / Yellow nut sedge (Percentage Control), 13/06 / Yellow nut sedge (Percentage Control), 20/6: post-emergence field plots, dosage 1X single, 0.5X two-way; for Yellow nut sedge (Percentage weed cover), 05/07: rating date 05/07 (29 DAT), untreated 59; for Yellow nut sedge (Percentage weed cover), 05/07 / Yellow nut sedge (Percentage weed cover), 13/06 / Yellow nut sedge (Percentage weed cover), 20/6 / Yellow nut sedge (Percentage Control), 05/07 / Yellow nut sedge (Percentage Control), 20/6: 0.33X three-way; for Yellow nut sedge (Percentage weed cover), 13/06: rating date 13/06, untreated 50; for Yellow nut sedge (Percentage weed cover), 20/6: rating date 20/6, untreated 49; for Yellow nut sedge (Percentage Control), 05/07: trial initiated June 6, rating date 05/07 (29 DAT); for Yellow nut sedge (Percentage Control), 13/06: trial initiated June 6, rating date 13/06, 0.33X three-way (rates Table 2); for Yellow nut sedge (Percentage Control), 20/6: trial initiated June 6, rating date 20/6; for Burn down / residual control of sedges, result in words: speed of burn down, onset of plant necrosis
Method: An exemplary combination according to the invention was used for sedge and broadleaf weed control for agricultural crops, turf, ornamentals, and landscape. The exemplary combination was used for the post-emergence control of sedges, as well as the control/suppression of various broadleaf and grassy weeds.
A field trial was conducted to evaluate the effectiveness of the combinations of three active ingredients according to the invention when used post emergence, at different rates, compared to industry standards—stand alone and 2 way mixture of compounds for efficacy of yellow nutsedge. The active ingredient combination used in the trial was bentazon+halosulfuron+sulfentrazone. The trial was conducted in Blacksburg, Va. and was initiated on June 6 under Protocol #BRLM-62-US-VA-18-10-BTC. The plots were in fallow area primarily covered with yellow nutsedge and tall fescue, and were sprayed at 4 week intervals. (2 applications total). The application dosages of the herbicides, when used in isolation and when used in the combinations were as follows: […]

| SMILES | Yellow nut sedge (Percentage weed cover), 05/07 [%] | Yellow nut sedge (Percentage weed cover), 13/06 [%] | Yellow nut sedge (Percentage weed cover), 20/6 [%] | Yellow nut sedge (Percentage Control), 05/07 [%] | Yellow nut sedge (Percentage Control), 13/06 [%] | Yellow nut sedge (Percentage Control), 20/6 [%] | Burn down / residual control of sedges, result in words | Weed control of yellow nutsedge, result in words (post-emergence field trial, compared to individual products and 2 way mixes) |
| --- | --- | --- | --- | --- | --- | --- | --- | --- |
| Cc1nn(-c2cc(NS(C)(=O)=O)c(Cl)cc2Cl)c(=O)n1C(F)F [Sulfentrazone] | 9 | 44 | 11 | 75 | 58 | 73 | fairly rapid burn down of some of the sedges | – |
| COC(=O)c1c(Cl)nn(C)c1S(=O)(=O)NC(=O)Nc1nc(OC)cc(OC)n1 [Halosulfuron, Halosulfuron-methyl] | 8 | 50 | 16 | 81 | 36 | 60 | delayed response of up to four weeks before plant necrosis began | – |
| CC(C)N1C(=O)c2ccccc2NS1(=O)=O [Bentazone] | 10 | 40 | 8 | 76 | 65 | 75 | fairly rapid burn down of some of the sedges | did not provide sufficient weed control |

Source: US11311015B2, “Herbicidal combination” (UPL LIMITED, priority 2018, dated 2022)
